PubChem BioAssay AID2206 (Vanderbilt High Throughput Screening Facility, 2009)
Activity calls are given as the source filed them.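 Rule for the calls: active = average EC50 below 10 µM; inactive = average EC50 of 10 µM or more.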

The molecules below were run against Muscarinic acetylcholine receptor M1 (Rattus norvegicus) (UniProt P08482) (assay: potentiation of ACh EC20 at rat M1 – cell-based, selectivity assay for M5 allosteric modulator project, SAR follow-up (AID 2206)). Conditions: CHO-K1 rat M1, Fluo-4 calcium.
Muscarinic acetylcholine receptor M1 (Rattus norvegicus), sequence (P08482 whole entry, looked up): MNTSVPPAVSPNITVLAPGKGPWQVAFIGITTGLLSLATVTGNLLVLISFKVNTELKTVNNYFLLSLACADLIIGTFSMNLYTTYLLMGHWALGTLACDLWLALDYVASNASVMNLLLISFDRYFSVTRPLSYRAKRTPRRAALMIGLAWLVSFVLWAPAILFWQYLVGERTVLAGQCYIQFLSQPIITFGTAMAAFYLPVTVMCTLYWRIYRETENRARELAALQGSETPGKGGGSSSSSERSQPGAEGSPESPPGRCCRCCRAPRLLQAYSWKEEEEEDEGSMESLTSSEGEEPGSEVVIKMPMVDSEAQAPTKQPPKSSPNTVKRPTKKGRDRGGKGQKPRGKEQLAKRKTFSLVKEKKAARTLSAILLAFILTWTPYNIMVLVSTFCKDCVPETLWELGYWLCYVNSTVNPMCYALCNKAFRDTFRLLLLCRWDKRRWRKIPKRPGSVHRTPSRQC

Compound | EC50
COc1ccc(CN2C(=O)C(=O)c3cccc(Cl)c32)cc1 | 5.38 µM
COc1ccc(CN2C(=O)C(=O)c3ccccc32)cc1 | inactive
Cc1ccccc1CN1C(=O)C(=O)c2cc(OC(F)(F)F)ccc21 | > 10 µM (inactive)
COc1cccc(CN2C(=O)C(=O)c3cc(OC(F)(F)F)ccc32)c1 | > 30 µM (inactive)
O=C1C(=O)N(Cc2ccc(C(F)(F)F)cc2)c2c(F)cccc21 | 5.18 µM
O=C1C(=O)N(Cc2ccccc2Cl)c2ccc(OC(F)(F)F)cc21 | > 30 µM (inactive)
O=C1C(=O)N(Cc2ccc(Br)cc2F)c2ccc(OC(F)(F)F)cc21 | > 10 µM (inactive)
O=C1C(=O)N(Cc2ccccc2C(F)(F)F)c2c(F)cccc21 | > 30 µM (inactive)
O=C1C(=O)N(Cc2ccc(C(F)(F)F)cc2)c2ccc(Cl)cc21 | 5.41 µM
COc1ccc(CN2C(=O)C(=O)c3cc(OC(F)(F)F)ccc32)cc1 | > 30 µM (inactive)
O=C1C(=O)N(Cc2ccccc2C(F)(F)F)c2ccc(F)cc21 | 6.21 µM
O=C1C(=O)N(Cc2ccc(OC(F)(F)F)cc2)c2ccc(OC(F)(F)F)cc21 | > 30 µM (inactive)
O=C1C(=O)N(Cc2ccc(Br)cc2)c2c(F)cccc21 | 3.99 µM
COc1cccc(CN2C(=O)C(=O)c3c(Cl)ccc(Cl)c32)c1 | > 30 µM (inactive)
O=C1C(=O)N(Cc2ccc(C(F)(F)F)cc2)c2ccc(OC(F)(F)F)cc21 | 7.09 µM
